According to patent US20230131111A1, “BIODEGRADABLE POLYIMIDAZOLIUMS AND OLIGOIMIDAZOLIUMS” (Nanyang Technological University, priority 2020, published 2023):

Key:
MDR A. baumannii AB-1 = assay: Murine septicemia model; type: in vivo, BALB/c mice; details: single dose 15 mg/kg
Method: (§1) Murine septicemia model was used to evaluate the in vivo efficacy of PIM1D. The experiment for mice septicemia infection model of MDR P. aeruginosa PAER and MDR A. baumannfi AB-1 was conducted within guidance of approved protocol by the Institutional Care and Use Committee of Nanyang Technological University (NTU IACUC). The experiments for murine septicemia infection model of wild type P. aeruginosa PAO1 and methicillin-resistant S. aureus MRSA USA300 were conducted following protocol reviewed and approved by Animal Ethics and Welfare Committee (AEWC) of Ningbo University. BALB/c female mice (8-9 weeks of age) were used to test the septic shock protection efficacy for all murine infection models. Exponential phase bacteria were washed twice with saline, and re-suspended into the same volume of saline. 300 μL bacterial suspension with varied concentration in 5% mucin was introduced into each mouse via IP injection to first determine the lethal bacterial dosage, and the determined concentration was then used in the following study. […] Mouse survival was monitored over 7 days. […] Bacterial loads were also evaluated in the spleen, liver and kidney of the animal. […] The bacterial levels were analyzed with one-way classification analysis of variance (ANOVA) and two-tailed student's t-test (Graphpad Prism for Windows, version 7).

P. aeruginosa PAO1 [1] = assay: Laboratory evolution of resistance, sequential passage; details: 30 days of passage
MRSA USA300 = assay: Neutropenic lung infection model; type: in vivo, BALB/c mice; details: 20 mg/kg intratracheal, one week
Method: (§2) Immunosuppression was induced by IP injection of cyclophosphamide (150 mg/kg) at day 4 and cyclophosphamide (100 mg/kg) at day 1 into BALB/c female mice (8-9 weeks of age) before infection was introduced. Lung infection was established by intratracheal delivery of MRSA USA300 or K. pneumoniae (#13883). […] The mice were monitored for survival over one week. In a separate experiment, mice lungs were harvested 26 h post-infection and homogenized, followed by plating to check the bacterial burden. The animal study protocols were approved by animal ethics and welfare committee at Ningbo University.

[2] = test system: methicillin-resistant S. aureus MRSA USA300; assay: Murine septicemia model, immunosuppressed mice; type: in vivo, BALB/c mice; details: 15 mg/kg IP at 2 h and 26 h post-infection
Method: as §1, with “7). […]” for “7).”

K. pneumoniae (#13883) = assay: Neutropenic lung infection model; type: in vivo, BALB/c mice
Method: as §2

A. baumannii X39 = assay: MIC90 broth microdilution; type: cell-based, Acinetobacter baumannii; set-up: MIC90 A. baumanii X39 (XDR): unit not given here
K. pneumoniae KPNR (MDR) = assay: MIC90 broth microdilution; type: cell-based, Klebsiella pneumoniae
E. cloacae ECLOS (MDR) = assay: MIC90 broth microdilution; type: cell-based, Enterobacter cloacae
[3] = test system: K. pneumoniae BAK085 (MDR); assay: MIC90 broth microdilution; type: cell-based, Klebsiella pneumoniae
P. aeruginosa PAO1 [4] = assay: Propidium iodide (PI) staining; type: cell-based, Pseudomonas aeruginosa; details: 1 h incubation
Method: P. aeruginosa PAO1 was used in the PI experiments. Cells grown in MHB were harvested in mid-Log phase and resuspended in fresh MHB. PIM1 or colistin (positive control) was added at the indicated concentrations. After 1-hour incubation with the antimicrobials, the cell suspensions were sampled to determine cells numbers by plate counting. The remaining cells were washed with PBS and stained with PI (15 μg/mL) according to the manufacturer's protocol. Attune N×T Flow cytometry (Thermo Fisher Scientific, USA) was used to determine the percent of cells that had taken up PI (dead cells). A Zeiss LSM800 confocal microscope was used to image cells on a polylysine-coated petri-dish (MatTek Corporation, USA).

HEK293 cells = assay: Mammalian cell cytotoxicity, MTT; type: cell-based, Human
[5] = test system: Burkholderia thailandensis 700388; type: cell-based; set-up: MIC90 Burkholderia thailandensis 700388: unit not given here; details: for MIC90 Burkholderia thailandensis 700388: naturally colistin-resistant
3T3 cells = assay: Mammalian cell cytotoxicity, MTT; type: cell-based, Mouse; details: half-maximal inhibition of cell viability
A. baumannii X40 (EDR) = assay: MIC90 broth microdilution; type: cell-based, Acinetobacter baumannii
HepG2 cells = assay: Mammalian cell cytotoxicity, MTT; type: cell-based, Human
P. aeruginosa PAO1 [6] = assay: MIC90 broth microdilution; type: cell-based, Pseudomonas aeruginosa
P. aeruginosa PAER = assay: MIC90 broth microdilution; type: cell-based, Pseudomonas aeruginosa
E. coli 958 (MDR) = assay: MIC90 broth microdilution; type: cell-based, Escherichia coli
A. baumannii X26 = assay: MIC90 broth microdilution; type: cell-based, Acinetobacter baumannii; set-up: MIC90 A. baumanii X26 (MDR): unit not given here
[7] = test system: P. aeruginosa PAES (clinical); assay: MIC90 broth microdilution; type: cell-based, Pseudomonas aeruginosa
E. cloacae CRE (MDR) = assay: MIC90 broth microdilution; type: cell-based, Enterobacter cloacae
K. pneumoniae M7 (MDR) = assay: MIC90 broth microdilution; type: cell-based, Klebsiella pneumoniae
P. aeruginosa PAK pmrB12 = assay: MIC90 broth microdilution; type: cell-based, Pseudomonas aeruginosa
A. baumannii AB-1 (MDR) = assay: MIC90 broth microdilution; type: cell-based, Acinetobacter baumannii
A549 cells = assay: Mammalian cell cytotoxicity, MTT; type: cell-based, Human
[8] = test system: K. pneumoniae SGH10 (clinical strain); assay: MIC90 broth microdilution; type: cell-based, Klebsiella pneumoniae
P. aeruginosa PAO1 [9] = assay: Killing of stationary phase bacteria; type: cell-based, Pseudomonas aeruginosa
Text: We used a previously reported method (S. Meylan et al., Cell Chem. Biol. 2017, 24, 195-206) to determine the effect of PIM1 and other antibiotics on the survival of stationary phase P. aeruginosa PAO1, except the stationary-phase cells were obtained by overnight growth in MHB, and we compared PIM1 with GEN. The results were compared to those with P. aeruginosa PAO1 harvested from MHB culture at the mid-Log growth phase. In addition, we tested the ability of an energy source to potentiate PIM1 killing of stationary-phase P. aeruginosa by addition of fumarate (15 mM) to the stationary-phase cells.

P. aeruginosa PAO1 [10] = assay: Membrane electric potential, DiS-C3-(5); type: cell-based, Pseudomonas aeruginosa; details: 30 min after addition
Method: Agents Chemother. 2000, 44, 3317-3321). […] The cell suspension (180 μL) was then added to each well of a 96-well plate, and the test compounds were added to the wells as indicated to bring the final mixture to 200 μL. Fluorescence was measured in each well every 2 min in a Spark 10M microtiter plate reader (Tecan, Switzerland) with excitation at 622 nm and emission 670 nm. Data were collected at 30 min after the addition of the test compound. Two independent experiments were conducted, and the data here are mean values±SD.

[11] = test system: Mycobacterium bovis bacillus Calmette-Guérin; type: cell-based
S. aureus USA300 (MRSA) = assay: MIC90 broth microdilution; type: cell-based, Staphylococcus aureus
S. aureus BAA40 (MRSA) = assay: MIC90 broth microdilution; type: cell-based, Staphylococcus aureus; set-up: unit not given here
E. faecalis 583 (VRE) = assay: MIC90 broth microdilution; type: cell-based, Enterococcus faecalis; set-up: unit not given here
[12] = half-maximal inhibition of cell viability

Molecule: C[C@@H](O)[C@H]1C(=O)N2C(C(=O)O)=C(SCCN=CN)C[C@H]12 [Imp, Imipenem]
- survival (MDR A. baumannii AB-1): 80%

Molecule: O=C(O)c1cn(C2CC2)c2cc(N3CCNCC3)c(F)cc2c1=O [ciprofloxacin]
- emergence of resistant mutants (P. aeruginosa PAO1 [1]): ciprofloxacin-resistant mutants emerged

Molecule: CN[C@H](CC(C)C)C(=O)N[C@H]1C(=O)N[C@@H](CC(N)=O)C(=O)N[C@H]2C(=O)N[C@H]3C(=O)N[C@H](C(=O)N[C@H](C(=O)O)c4cc(O)cc(O)c4-c4cc3ccc4O)[C@H](O)c3ccc(c(Cl)c3)Oc3cc2cc(c3O[C@@H]2O[C@H](CO)[C@@H](O)[C@H](O)[C@H]2O[C@H]2C[C@](C)(N)[C@H](O)[C@H](C)O2)Oc2ccc(cc2Cl)[C@H]1O [vancomycin]
- survival (MRSA USA300): 40%
- survival [2]: all mice survived

Molecule: colistin
- survival (K. pneumoniae (#13883); 20 mg/kg intratracheal, one week): survived
- reduction of K. pneumoniae in lung (K. pneumoniae (#13883); single 20 mg/kg intratracheal, versus infection control): similar
- MIC90 A. baumanii X39 (XDR) (A. baumannii X39): 4-8
- MIC90 A. baumannii X39 (EDR) (A. baumannii X39): 4 to 8 µg/mL
- MIC90 K. pneumoniae KPNR (MDR) (K. pneumoniae KPNR (MDR)): 2 µg/mL
- MIC90 E. cloacae ECLOS (MDR) (E. cloacae ECLOS (MDR)): 16 µg/mL
- MIC90 K. pneumoniae BAK085 (MDR) [3]: 2 µg/mL
- propidium iodide uptake (P. aeruginosa PAO1 [4]): almost all cells treated with colistin were stained
- IC50 Human kidney (HEK293) (HEK293 cells; MTT): 64 µg/mL
- IC50 Human kidney (HEK293) (HEK293 cells; [12]): 64 μg per mL
- MIC90 B. Thailandensis 700388 [5]: >128 µg/mL
- MIC90 Burkholderia thailandensis 700388 [5]: >128
- IC50 Mouse fibroblast (3T3) (3T3 cells): >1024 μg per mL
- MIC90 A. baumannii X40 (EDR) (A. baumannii X40 (EDR)): 8 µg/mL
- IC50 Human liver (HepG2) (HepG2 cells; MTT): >1024 µg/mL
- IC50 Human liver (HepG2) (HepG2 cells; [12]): >1024 μg per mL
- MIC90 P. aeruginosa PAO1 (P. aeruginosa PAO1 [6]): 2 µg/mL
- MIC90 P. aeruginosa PAER (P. aeruginosa PAER): 1 mg per mL
- MIC90 P. aeruginosa PAER (MDR) (P. aeruginosa PAER): 1 µg/mL
- MIC90 E. coli 958 (MDR) (E. coli 958 (MDR)): 2 µg/mL
- MIC90 A. baumanii X26 (MDR) (A. baumannii X26): 2
- MIC90 A. baumannii X26 (EDR) (A. baumannii X26): 2 µg/mL
- MIC90 P. aeruginosa PAES (clinical) [7]: 2 µg/mL
- MIC90 E. cloacae CRE (MDR) (E. cloacae CRE (MDR)): 2 µg/mL
- MIC90 K. pneumoniae M7 (MDR) (K. pneumoniae M7 (MDR)): 16 to 32 µg/mL
- MIC90 P. aeruginosa PAK pmrB12 (P. aeruginosa PAK pmrB12): 16 µg/mL
- MIC90 A. baumanii AB-1 (MDR) (A. baumannii AB-1 (MDR)): 2 mg per mL
- MIC90 A. baumannii AB-1 (MDR) (A. baumannii AB-1 (MDR)): 2 µg/mL
- IC50 Human epithelial (A549) (A549 cells; MTT): >1,024 μg/ml
- IC50 Human epithelial (A549) (A549 cells; [12]): >1024 μg per mL
- MIC90 K. pneumoniae SGH10 (clinical strain) [8]: 2 µg/mL

Molecule: gentamicin
- susceptibility of stationary phase cells to killing (P. aeruginosa PAO1 [9]; compared with killing by colistin, 4-h exposure): much less susceptible
- bactericidal activity on stationary-phase cells with fumarate (P. aeruginosa PAO1 [9]; fumarate 15 mM): restored

Molecule: gramicidin
- DiS-C3-(5) fluorescence (dissipation of membrane potential) (P. aeruginosa PAO1 [10]): dramatic increase in DiS-C3-(5) fluorescence

Molecule: polymyxin B
- MIC90 A. baumanii X39 (XDR) (A. baumannii X39): 8
- MIC90 Mycobacterium bovis bacillus Calmette-Guérin [11]: 64 mg per mL
- IC50 Human kidney (HEK293) (HEK293 cells; [12]): 240 μg per mL
- MIC90 Burkholderia thailandensis 700388 [5]: >128
- MIC90 S. aureus USA300 (MRSA) (S. aureus USA300 (MRSA)): 64-128 mg per mL
- IC50 Mouse fibroblast (3T3) (3T3 cells): 920 μg per mL
- IC50 Human liver (HepG2) (HepG2 cells; [12]): 765 μg per mL
- MIC90 P. aeruginosa PAER (P. aeruginosa PAER): 2 mg per mL
- MIC90 S. aureus BAA40 (MRSA) (S. aureus BAA40 (MRSA)): 64-128
- MIC90 A. baumanii X26 (MDR) (A. baumannii X26): 4
- MIC90 A. baumanii AB-1 (MDR) (A. baumannii AB-1 (MDR)): 2 mg per mL
- IC50 Human epithelial (A549) (A549 cells; [12]): 879 μg per mL
- MIC90 E. faecalis 583 (VRE) (E. faecalis 583 (VRE)): >128
